IC50 data for 29 compounds are collected here from patent US20140005163A1 (NOVARTIS AG, priority 2010, published 2014).

Where only a bound is given, the exact number is not on record here.

For orientation: IC50 means the midpoint of a concentration-inhibition curve.

The test system of the assay is PKB Ser473 phosphorylation in Rat1-myr-HA-p110 alpha cells. Description: Reverse protein array assay, PKB Ser473 phosphorylation in Rat1-myr-p110 alpha cells. Particulars: 0.5 h, pAkt Ser473, 30 minutes compound incubation, read-out: p-PKB IC50. It is filed as cell-based. The gist of the method:
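Lysates were arrayed at four dilutions, and phospho-PKB Ser473 was quantified by relative fluorescence signal. They came from Rat1-myr-HA-p110 alpha, beta or delta cells exposed for 30 min at 37 °C to an 8-point compound series with 0.2% DMSO constant.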

Consider `Cc1nn(CCO)cc1-n1c(=O)n(C)c2cnc3ccc(-c4cncc(N5CCOCC5)c4)cc3c21` [Example 175.3, 1-[1-(2-Hydroxy-ethyl)-3-methyl-1H-pyrazol-4-yl]-3-methyl-8-(5-morpholin-4-yl-pyridin-3-yl)-1,3-dihydro-imidazo[4,5-c]quinolin-2-one], for which the IC50 was 0.344 µM. In the case of `CCn1cc(-n2c(=O)n(C)c3cnc4ccc(-c5cnc(NC)c(Cl)c5)cc4c32)c(C)n1` [Example 146.2, 8-(5-Chloro-6-methylamino-pyridin-3-yl)-1-(1-ethyl-3-methyl-1H-pyrazol-4-yl)-3-methyl-1,3-dihydro-imidazo[4,5-c]quinolin-2-one], the concentration for half-maximal inhibition (IC50) is under 0.005 µM. In the case of `CCNc1cc(-c2ccc3ncc4c(c3c2)n(-c2c(C)nn(C)c2C)c(=O)n4C)cnc1Cl` [Example 153.1, 8-(6-Chloro-5-ethylamino-pyridin-3-yl)-3-methyl-1-(1,3,5-trimethyl-1H-pyrazol-4-yl)-1,3-dihydro-imidazo[4,5-c]quinolin-2-one], the IC50 is 0.019 µM. Turning to `CCNc1cc(-c2ccc3ncc4c(c3c2)n(-c2cn(C)nc2C)c(=O)n4C)cnc1CC` [Example 161, 1-(1,3-Dimethyl-1H-pyrazol-4-yl)-8-(6-ethyl-5-ethylamino-pyridin-3-yl)-3-methyl-1,3-dihydro-imidazo[4,5-c]quinolin-2-one], the IC50 is under 0.005 µM. The value for `Cc1cc(-n2c(=O)n(C)c3cnc4ccc(-c5ccc(C(F)(F)F)nc5)cc4c32)n(C)n1` [Example 8.2, 1-(2,5-Dimethyl-2H-pyrazol-3-yl)-3-methyl-8-(6-trifluoromethyl-pyridin-3-yl)-1,3-dihydro-imidazo[4,5-c]quinolin-2-one] was 0.192 µM; that for `COCCOc1cc(-c2ccc3ncc4c(c3c2)n(-c2cn(C)nc2C)c(=O)n4C)cnc1CO` [Example 244, 1-(1,3-Dimethyl-1H-pyrazol-4-yl)-8-[6-hydroxymethyl-5-(2-methoxy-ethoxy)-pyridin-3-yl]-3-methyl-1,3-dihydro-imidazo[4,5-c]quinolin-2-one] was 0.115 µM. For `CCNc1cc(-c2ccc3ncc4c(c3c2)n(-c2cn(C(C)C)nc2C)c(=O)n4C)cnc1CO` [Example 155.3, 8-(5-Ethylamino-6-hydroxymethyl-pyridin-3-yl)-1-(1-isopropyl-3-methyl-1H-pyrazol-4-yl)-3-methyl-1,3-dihydro-imidazo[4,5-c]quinolin-2-one], the IC50 was under 0.005 µM. In the case of `COc1ncc(-c2ccc3ncc4c(c3c2)n(-c2cn(C)nc2Cl)c(=O)n4C)cn1` [Example 17.3, 1-(3-Chloro-1-methyl-1H-pyrazol-4-yl)-8-(2-methoxy-pyrimidin-5-yl)-3-methyl-1,3-dihydro-imidazo[4,5-c]quinolin-2-one] it was 0.021 µM; in that of `Cc1nn(C)cc1-n1c(=O)n(C)c2cnc3ccc(-c4ccc(N5CC[C@@H](O)C5)nc4)cc3c21` [Example 212.1, 1-(1,3-Dimethyl-1H-pyrazol-4-yl)-8-[6-((R)-3-hydroxy-pyrrolidin-1-yl)-pyridin-3-yl]-3-methyl-1,3-dihydro-imidazo[4,5-c]quinolin-2-one], 0.135 µM; in that of `CCOc1ccc(-c2ccc3ncc4c(c3c2)n(-c2cn(CCO)nc2C)c(=O)n4C)cn1` [Example 103.2, 8-(6-Ethoxy-pyridin-3-yl)-1-[1-(2-hydroxy-ethyl)-3-methyl-1H-pyrazol-4-yl]-3-methyl-1,3-dihydro-imidazo[4,5-c]quinolin-2-one], 0.007 µM.

Consider `Cc1ncc(-c2ccc3ncc4c(c3c2)n(-c2cn(C)nc2Cl)c(=O)n4C)cc1N` [Example 88.1, 8-(5-Amino-6-methyl-pyridin-3-yl)-1-(3-chloro-1-methyl-1H-pyrazol-4-yl)-3-methyl-1,3-dihydro-imidazo[4,5-c]quinolin-2-one], for which the IC50 was under 0.005 µM. The value for `Cc1nn(C)cc1-n1c(=O)n(C)c2cnc3ccc(-c4cnc(F)c(N)c4)cc3c21` [Example 149.2, 8-(5-Amino-6-fluoro-pyridin-3-yl)-1-(1,3-dimethyl-1H-pyrazol-4-yl)-3-methyl-1,3-dihydro-imidazo[4,5-c]quinolin-2-one] was 0.08 µM.

For `Cc1nn(C(C)C)cc1-n1c(=O)n(C)c2cnc3ccc(-c4cnc(F)c(N)c4)cc3c21` [Example 149.1, 8-(5-Amino-6-fluoro-pyridin-3-yl)-1-(1-isopropyl-3-methyl-1H-pyrazol-4-yl)-3-methyl-1,3-dihydro-imidazo[4,5-c]quinolin-2-one], the half-maximal inhibitory concentration (IC50) is 0.031 µM. With `CCOCc1cc(-c2ccc3ncc4c(c3c2)n(-c2cn(C)nc2C)c(=O)n4C)cnc1N` [Example 166.1, 8-(6-Amino-5-ethoxymethyl-pyridin-3-yl)-1-(1,3-dimethyl-1H-pyrazol-4-yl)-3-methyl-1,3-dihydro-imidazo[4,5-c]quinolin-2-one], the IC50 amounted to 0.022 µM. Regarding `Cc1nn(C)cc1-n1c(=O)n(C)c2cnc3ccc(-c4cncc(N)c4)cc3c21` [Example 45.1, 8-(5-Amino-pyridin-3-yl)-1-(1,3-dimethyl-1H-pyrazol-4-yl)-3-methyl-1,3-dihydro-imidazo[4,5-c]quinolin-2-one], the IC50 was determined as 0.06 µM. On to `CCNc1cc(-c2ccc3ncc4c(c3c2)n(-c2c(C)nn(CCO)c2C)c(=O)n4C)cnc1C` [Example 210, 8-(5-Ethylamino-6-methyl-pyridin-3-yl)-1-[1-(2-hydroxy-ethyl)-3,5-dimethyl-1H-pyrazol-4-yl]-3-methyl-1,3-dihydro-imidazo[4,5-c]quinolin-2-one], for which the IC50 was 0.057 µM. For the compound `CCN(C)c1cncc(-c2ccc3ncc4c(c3c2)n(-c2cn(C)nc2C)c(=O)n4C)c1` [Example 176, 1-(1,3-Dimethyl-1H-pyrazol-4-yl)-8-[5-(ethyl-methyl-amino)-pyridin-3-yl]-3-methyl-1,3-dihydro-imidazo[4,5-c]quinolin-2-one], the IC50 is under 0.005 µM. With `CCOc1cc(-c2ccc3ncc4c(c3c2)n(-c2cn(C)nc2C)c(=O)n4C)cnc1CO` [Example 243, 1-(1,3-Dimethyl-1H-pyrazol-4-yl)-8-(5-ethoxy-6-hydroxymethyl-pyridin-3-yl)-3-methyl-1,3-dihydro-imidazo[4,5-c]quinolin-2-one], the IC50 amounted to 0.036 µM. The value for `CCN(CC)C(=O)Cn1cc(-n2c(=O)n(C)c3cnc4ccc(-c5ccc(C)nc5)cc4c32)c(C)n1` [Example 139, N,N-Diethyl-2-{3-methyl-4-[3-methyl-8-(6-methyl-pyridin-3-yl)-2-oxo-2,3-dihydro-imidazo[4,5-c]quinolin-1-yl]-pyrazol-1-yl}-acetamide] was 0.052 µM. The value for `CCNc1cc(-c2ccc3ncc4c(c3c2)n(-c2cn(CC)nc2C)c(=O)n4C)cnc1COC` [Example 157, 8-(5-Ethylamino-6-methoxymethyl-pyridin-3-yl)-1-(1-ethyl-3-methyl-1H-pyrazol-4-yl)-3-methyl-1,3-dihydro-imidazo[4,5-c]quinolin-2-one] was under 0.005 µM; that for `CCNc1cc(-c2ccc3ncc4c(c3c2)n(-c2c(C)nn(C)c2C)c(=O)n4C)cnc1CO` [Example 155.4, 8-(5-Ethylamino-6-hydroxymethyl-pyridin-3-yl)-3-methyl-1-(1,3,5-trimethyl-1H-pyrazol-4-yl)-1,3-dihydro-imidazo[4,5-c]quinolin-2-one] was 0.088 µM; that for `CCOc1ccc(-c2ccc3ncc4c(c3c2)n(-c2c(C)nn(CC(=O)N(C)C)c2C)c(=O)n4C)cn1` [Example 3.12, 2-{4-[8-(6-Ethoxy-pyridin-3-yl)-3-methyl-2-oxo-2,3-dihydro-imidazo[4,5-c]quinolin-1-yl]-3,5-dimethyl-pyrazol-1-yl}-N,N-dimethyl-acetamide] was 0.128 µM. As for `Cc1nn(C)cc1-n1c(=O)n(C)c2cnc3ccc(-c4cnc5c(c4)C(C)(C)C(=O)N5C)cc3c21` [Example 233, 1-(1,3-Dimethyl-1H-pyrazol-4-yl)-3-methyl-8-(1,3,3-trimethyl-2-oxo-2,3-dihydro-1H-pyrrolo[2,3-b]pyridin-5-yl)-1,3-dihydro-imidazo[4,5-c]quinolin-2-one], the IC50 was 0.026 µM.

As for `COC(C)(C)c1cncc(-c2ccc3ncc4c(c3c2)n(-c2cn(C)nc2C)c(=O)n4C)c1` [Example 239, 1-(1,3-Dimethyl-1H-pyrazol-4-yl)-8-[5-(1-methoxy-1-methyl-ethyl)-pyridin-3-yl]-3-methyl-1,3-dihydro-imidazo[4,5-c]quinolin-2-one], the IC50 was 0.028 µM.

Take `CCNC(=O)c1cc(-c2ccc3ncc4c(c3c2)n(-c2cn(C)nc2C)c(=O)n4C)cnc1NC` [Example 242.1, 5-[1-(1,3-Dimethyl-1H-pyrazol-4-yl)-3-methyl-2-oxo-2,3-dihydro-1H-imidazo[4,5-c]quinolin-8-yl]-N-ethyl-2-methylamino-nicotinamide]: the IC50 was 0.045 µM. `CNC(=O)c1cc(-c2ccc3ncc4c(c3c2)n(-c2cn(C)nc2C)c(=O)n4C)cnc1N` [Example 224.1, 2-Amino-5-[1-(1,3-dimethyl-1H-pyrazol-4-yl)-3-methyl-2-oxo-2,3-dihydro-1H-imidazo[4,5-c]quinolin-8-yl]-N-methyl-nicotinamide]: the IC50 turned out to be 0.019 µM. Turning to `Cc1nn(CC(=O)N2CCC2)cc1-n1c(=O)n(C)c2cnc3ccc(-c4cncc(OC(C)C)c4)cc3c21` [Example 205, 1-[1-(2-Azetidin-1-yl-2-oxo-ethyl)-3-methyl-1H-pyrazol-4-yl]-8-(5-isopropoxy-pyridin-3-yl)-3-methyl-1,3-dihydro-imidazo[4,5-c]quinolin-2-one], the IC50 came to 0.076 µM.

Turning to `CCOc1cc(-c2ccc3ncc4c(c3c2)n(-c2cn(CCO)nc2C)c(=O)n4C)cnc1C` [Example 211.2, 8-(5-Ethoxy-6-methyl-pyridin-3-yl)-1-[1-(2-hydroxy-ethyl)-3-methyl-1H-pyrazol-4-yl]-3-methyl-1,3-dihydro-imidazo[4,5-c]quinolin-2-one], the IC50 was 0.008 µM.

As to `CCn1cc(-n2c(=O)n(C)c3cnc4ccc(-c5cnc(F)c(NC)c5)cc4c32)c(C)n1` [Example 150.1, 1-(1-Ethyl-3-methyl-1H-pyrazol-4-yl)-8-(6-fluoro-5-methylamino-pyridin-3-yl)-3-methyl-1,3-dihydro-imidazo[4,5-c]quinolin-2-one], the IC50 is 0.009 µM.
